In patent US20240182531A1, “KV1.3 Blockers” (priority 2021, published 2024):
Where a SMILES comes first, the peptide text is derived from it. Bridges are numbered along the chain shown (N, C = ends). [ ]: non-standard residue; d: D form. Nle = CCCC[C@H](N)C(=O)O

Target: Rat whole blood (Rattus norvegicus, UniProt P15384)
Assay type: cell-based
Conditions: IL-17A release, thapsigargin, 24 Hr, at least 2 replicates

Sequence of Rat whole blood (P15384 whole entry): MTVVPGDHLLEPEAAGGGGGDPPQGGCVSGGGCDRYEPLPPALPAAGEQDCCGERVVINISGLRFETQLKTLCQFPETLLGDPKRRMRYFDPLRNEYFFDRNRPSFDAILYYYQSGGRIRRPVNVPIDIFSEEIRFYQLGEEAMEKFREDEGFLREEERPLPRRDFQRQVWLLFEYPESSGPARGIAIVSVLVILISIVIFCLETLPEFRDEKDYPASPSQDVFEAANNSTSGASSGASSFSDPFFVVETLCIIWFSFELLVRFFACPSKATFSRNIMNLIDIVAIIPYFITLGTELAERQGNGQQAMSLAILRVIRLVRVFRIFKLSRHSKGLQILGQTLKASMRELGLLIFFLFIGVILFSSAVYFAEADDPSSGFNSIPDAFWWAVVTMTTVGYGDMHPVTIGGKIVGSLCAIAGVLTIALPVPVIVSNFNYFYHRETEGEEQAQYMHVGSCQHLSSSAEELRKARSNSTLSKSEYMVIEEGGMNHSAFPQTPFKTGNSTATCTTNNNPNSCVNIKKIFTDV

Point of comparison: “H-S[Nle]D[Nle]RCSASVECKQKCLKAIGSIFG[homo-Lys]CMNKKCKCYPR-NH2 [compound 69]”, IC50 2.7 nM. Against it:
- CC[C@H](C)[C@@H]1NC(=O)[C@H](C)NC(=O)[C@H](CCCCN)NC(=O)[C@H](CC(C)C)NC(=O)[C@@H]2CSSC[C@@H](C(=O)N[C@@H](Cc3ccc(O)cc3)C(=O)N3CCC[C@H]3C(=O)N[C@@H](CCCNC(=N)N)C(N)=O)NC(=O)[C@H](CCCCN)NC(=O)[C@@H]3CSSC[C@H](NC(=O)[C@H](CCC(=O)O)NC(=O)[C@H](C(C)C)NC(=O)[C@H](CO)NC(=O)[C@H](C)NC(=O)[C@H](CO)NC(=O)[C@@H](NC(=O)[C@H](CCCNC(=N)N)NC(=O)[C@H](CCSC)NC(=O)[C@H](CC(=O)O)NC(=O)[C@H](CCSC)NC(=O)[C@@H](N)CC(N)=O)CSSC[C@H](NC(=O)[C@H](CCCCN)NC(=O)CNC(=O)[C@H](Cc4ccccc4)NC(=O)[C@H]([C@@H](C)CC)NC(=O)[C@H](CO)NC(=O)CNC1=O)C(=O)N[C@@H](CCSC)C(=O)N[C@@H](CC(N)=O)C(=O)N[C@@H](CCCCN)C(=O)N[C@@H](CCCCN)C(=O)N3)C(=O)N[C@@H](CCCCN)C(=O)N[C@@H](CC(C)C)C(=O)N[C@@H](CCCCN)C(=O)N2 [compound 36] (H-NMDMRCSASVECKLKCLKAIGSIFGKCMNKKCKCYPR-NH2; disulfide 6-27, 12-32, 16-34) — 3.6-fold lower, 0.75 nM
- CCCC[C@@H]1NC(=O)[C@@H]2CSSC[C@H](NC(=O)[C@H](CCCNC(=N)N)NC(=O)[C@H](CCCC)NC(=O)[C@H](CC(=O)O)NC(=O)[C@H](CCCC)NC(=O)[C@@H](N)Cc3c[nH]cn3)C(=O)N[C@@H](CO)C(=O)N[C@@H](C)C(=O)N[C@@H](CO)C(=O)N[C@@H](C(C)C)C(=O)N[C@@H](CCC(=O)O)C(=O)N[C@H]3CSSC[C@H](NC(=O)[C@H](CCCCN)NC(=O)[C@H](CCCCN)NC(=O)[C@H](CC(N)=O)NC1=O)C(=O)N[C@@H](CCCCN)C(=O)N[C@H](C(=O)N[C@@H](Cc1ccc(O)cc1)C(=O)N1CCC[C@H]1C(=O)N[C@@H](CCCNC(=N)N)C(N)=O)CSSC[C@H](NC(=O)[C@H](CCCCN)NC(=O)[C@H](CCC(N)=O)NC(=O)[C@H](CCCCN)NC3=O)C(=O)N[C@@H](CC(C)C)C(=O)N[C@@H](CCCCN)C(=O)N[C@@H](C)C(=O)N[C@@H]([C@@H](C)CC)C(=O)NCC(=O)N[C@@H](CO)C(=O)N[C@@H]([C@@H](C)CC)C(=O)N[C@@H](Cc1ccccc1)C(=O)NCC(=O)N[C@@H](CCCCN)C(=O)N2 [compound 64] (H-H[Nle]D[Nle]RCSASVECKQKCLKAIGSIFGKC[Nle]NKKCKCYPR-NH2; disulfide 6-27, 12-32, 16-34) — 2.3-fold lower, 1.2 nM
- CCCC[C@@H]1NC(=O)[C@@H]2CSSC[C@H](NC(=O)[C@H](CCCNC(=N)N)NC(=O)[C@H](CCCC)NC(=O)[C@H](CC(=O)O)NC(=O)[C@H](CCCC)NC(=O)[C@@H](N)Cc3ccc(O)cc3)C(=O)N[C@@H](CO)C(=O)N[C@@H](C)C(=O)N[C@@H](CO)C(=O)N[C@@H](C(C)C)C(=O)N[C@@H](CCC(=O)O)C(=O)N[C@H]3CSSC[C@H](NC(=O)[C@H](CCCCN)NC(=O)[C@H](CCCCN)NC(=O)[C@H](CC(N)=O)NC1=O)C(=O)N[C@@H](CCCCN)C(=O)N[C@H](C(=O)N[C@@H](Cc1ccc(O)cc1)C(=O)N1CCC[C@H]1C(=O)N[C@@H](CCCNC(=N)N)C(N)=O)CSSC[C@H](NC(=O)[C@H](CCCCN)NC(=O)[C@H](CCC(N)=O)NC(=O)[C@H](CCCCN)NC3=O)C(=O)N[C@@H](CC(C)C)C(=O)N[C@@H](CCCCN)C(=O)N[C@@H](C)C(=O)N[C@@H]([C@@H](C)CC)C(=O)NCC(=O)N[C@@H](CO)C(=O)N[C@@H]([C@@H](C)CC)C(=O)N[C@@H](Cc1ccccc1)C(=O)NCC(=O)N[C@@H](CCCCN)C(=O)N2 [compound 65] (H-Y[Nle]D[Nle]RCSASVECKQKCLKAIGSIFGKC[Nle]NKKCKCYPR-NH2; disulfide 6-27, 12-32, 16-34) — 2.5-fold lower, 1.1 nM
- CCCC[C@@H]1NC(=O)[C@@H]2CSSC[C@H](NC(=O)[C@H](CCCNC(=N)N)NC(=O)[C@H](CCCC)NC(=O)[C@H](CC(=O)O)NC(=O)[C@H](CCCC)NC(=O)[C@@H](N)CO)C(=O)N[C@@H](CO)C(=O)N[C@@H](C)C(=O)N[C@@H](CO)C(=O)N[C@@H](C(C)C)C(=O)N[C@@H](CCC(=O)O)C(=O)N[C@H]3CSSC[C@H](NC(=O)[C@H](CCCCN)NC(=O)[C@H](CCCCN)NC(=O)[C@H](CC(N)=O)NC1=O)C(=O)N[C@@H](CCCCN)C(=O)N[C@H](C(=O)N[C@@H](Cc1ccc(O)cc1)C(=O)N1CCC[C@H]1C(=O)N[C@@H](CCCNC(=N)N)C(N)=O)CSSC[C@H](NC(=O)[C@H](CCCCN)NC(=O)[C@H](CCC(N)=O)NC(=O)[C@H](CCCCN)NC3=O)C(=O)N[C@@H](CC(C)C)C(=O)N[C@@H](CCCCN)C(=O)N[C@@H](C)C(=O)N[C@@H]([C@@H](C)CC)C(=O)NCC(=O)N[C@@H](CO)C(=O)N[C@@H]([C@@H](C)CC)C(=O)N[C@@H](Cc1ccccc1)C(=O)NCC(=O)N[C@@H](CCCCN)C(=O)N2 [compound 66] (H-S[Nle]D[Nle]RCSASVECKQKCLKAIGSIFGKC[Nle]NKKCKCYPR-NH2; disulfide 6-27, 12-32, 16-34) — 5.7-fold lower, 0.47 nM
- CCCC[C@@H]1NC(=O)[C@@H]2CSSC[C@H](NC(=O)[C@H](CCCNC(=N)N)NC(=O)[C@H](CCCC)NC(=O)[C@H](CC(=O)O)NC(=O)[C@H](CCCC)NC(=O)[C@@H](N)C(C)C)C(=O)N[C@@H](CO)C(=O)N[C@@H](C)C(=O)N[C@@H](CO)C(=O)N[C@@H](C(C)C)C(=O)N[C@@H](CCC(=O)O)C(=O)N[C@H]3CSSC[C@H](NC(=O)[C@H](CCCCN)NC(=O)[C@H](CCCCN)NC(=O)[C@H](CC(N)=O)NC1=O)C(=O)N[C@@H](CCCCN)C(=O)N[C@H](C(=O)N[C@@H](Cc1ccc(O)cc1)C(=O)N1CCC[C@H]1C(=O)N[C@@H](CCCNC(=N)N)C(N)=O)CSSC[C@H](NC(=O)[C@H](CCCCN)NC(=O)[C@H](CCC(N)=O)NC(=O)[C@H](CCCCN)NC3=O)C(=O)N[C@@H](CC(C)C)C(=O)N[C@@H](CCCCN)C(=O)N[C@@H](C)C(=O)N[C@@H]([C@@H](C)CC)C(=O)NCC(=O)N[C@@H](CO)C(=O)N[C@@H]([C@@H](C)CC)C(=O)N[C@@H](Cc1ccccc1)C(=O)NCC(=O)N[C@@H](CCCCN)C(=O)N2 [compound 67] (H-V[Nle]D[Nle]RCSASVECKQKCLKAIGSIFGKC[Nle]NKKCKCYPR-NH2; disulfide 6-27, 12-32, 16-34) — 2.8-fold lower, 0.98 nM
- CCCC[C@H](NC(=O)[C@@H]1CCCN1)C(=O)N[C@@H](CC(=O)O)C(=O)N[C@@H](CCCC)C(=O)N[C@@H](CCCNC(=N)N)C(=O)N[C@H]1CSSC[C@@H]2NC(=O)[C@H](CCCCN)NC(=O)CNC(=O)[C@H](Cc3ccccc3)NC(=O)[C@H]([C@@H](C)CC)NC(=O)[C@@H]3CSSC[C@@H](C(N)=O)NC(=O)[C@@H]4CCCN4C(=O)[C@H](Cc4ccc(O)cc4)NC(=O)[C@@H]4CSSC[C@H](NC(=O)[C@H](CCCCN)NC(=O)[C@H](CCC(N)=O)NC(=O)[C@H](CCCCN)NC(=O)[C@H](CSSC[C@H](NC(=O)[C@H](CCCCN)NC(=O)[C@H](CCCCN)NC(=O)[C@H](CC(N)=O)NC(=O)[C@H](CCCC)NC2=O)C(=O)N[C@@H](CCCCN)C(=O)N4)NC(=O)[C@H](CCC(=O)O)NC(=O)[C@H](C(C)C)NC(=O)[C@H](CO)NC(=O)[C@H](C)NC(=O)[C@H](CO)NC1=O)C(=O)N[C@@H](CC(C)C)C(=O)N[C@@H](CCCCN)C(=O)N[C@@H](C)C(=O)N[C@@H]([C@@H](C)CC)C(=O)NCC(=O)N3 [compound 81] (H-P[Nle]D[Nle]RCSASVECKQKCLKAIGCIFGKC[Nle]NKKCKCYPC-NH2; disulfide 6-27, 12-32, 16-34, 22-37) — 3.3-fold lower, 0.81 nM
- Ac-LRCSASVECKQKCLAAIGSIFGKC[Nle]NKKCKCYPR-OH (cysteine pairing not given here) [compound 104] — 3-fold lower, 0.9 nM
- H-CSASVECKQKCLKAIGCIFGKC[Nle]NKKCKCYPC-NH2 (cysteine pairing not given here) [compound 84] — 2.5-fold lower, 1.1 nM
- H-LRCSASVECKQKCLKAIGSIFGKC[Nle]NKKCKCYPR-OH (cysteine pairing not given here) [compound 103] — within 1.5-fold, 2.1 nM
- H-N[Nle]D[Nle]RCSASVECEQKCLKAIGSIFGKC[Nle]NKKCKCYPR-NH2 (cysteine pairing not given here) [compound 47] — 2.7-fold lower, 0.99 nM
- H-N[Nle]D[Nle]RCSASVECQQKCLKAIGSIFGKC[Nle]NKKCKCYPR-NH2 (cysteine pairing not given here) [compound 48] — 2.5-fold lower, 1.1 nM
- H-PIDERCSASVECKQKCLAAIGSIFGKC[Nle]NKKCKCYPR-OH (cysteine pairing not given here) [compound 94] — 3.1-fold lower, 0.87 nM
- H-P[Nle]D[Nle]RCSASVECAQKCLAAIGSIFGKCMNKKCKCYPR-OH (cysteine pairing not given here) [compound 96] — 8.4-fold lower, 0.32 nM
- H-P[Nle]D[Nle]RCSASVECKEKCL[homo-Gln]AIGSIFGKC[Nle]NKKCKCYPR-NH2 [compound 83] — 1.9-fold lower, 1.4 nM
- H-P[Nle]D[Nle]RCSASVECKQKCLKAIGCIFGKC[Nle]NKKCKCYPC-OH (cysteine pairing not given here) [compound 86] — 2.5-fold lower, 1.1 nM
- H-P[Nle]E[Nle]RCSASVECKQKCLLAIGSIFGKC[Nle]NKKCKCYPR-OH (cysteine pairing not given here) [compound 93] — 5.4-fold lower, 0.5 nM
- H-S[Nle]D[Nle]RCSASVECKEKCLQAIGSIFGKC[Nle]NKKCKCYPR-NH2 (cysteine pairing not given here) [compound 82] — 3.9-fold lower, 0.69 nM
- H-S[Nle]D[Nle]RCSASVECKQKCLAAIGCIFGKC[Nle]NKKCKCYPC-NH2 (cysteine pairing not given here) [compound 85] — 3.7-fold lower, 0.73 nM
- H-S[Nle]D[Nle]RCSASVECKQKCLKAIGSIFGKCMNKKCKCYQ-NH2 (cysteine pairing not given here) [compound 74] — 1.7-fold lower, 1.6 nM
- H-S[Nle]D[Nle]RCSASVECKQKCLKAIGSIFGKCMNKKCKC[F(4-CH3)]PR-NH2 [compound 89] — 5-fold lower, 0.54 nM
- H-S[Nle]D[Nle]RCSASVECKQKCLKAIGSIFGKCMNKKCKC[F(4-F)]PR-NH2 [compound 87] — 7.9-fold lower, 0.34 nM
- H-S[Nle]D[Nle]RCSASVECKQKCLKAIGSIFGKCMNKKCKC[F(4-NO2)]PR-NH2 [compound 88] — 2.1-fold lower, 1.3 nM
- H-S[Nle]D[Nle]RCSASVECKQKCLKAIGSIFGKC[Nle]NKKCKCYPR-OH (cysteine pairing not given here) [compound 80] — 5.2-fold lower, 0.52 nM
- H-S[Nle]D[Nle]RCSASVECKQKCLVAIGSIFGKCMNKKCKCYPR-NH2 (cysteine pairing not given here) [compound 77] — 6.9-fold lower, 0.39 nM
